# From patent US8669252B2, “Prolylcarboxypeptidase inhibitors” (Merck Sharp & Dohme Corp., priority 2010, dated 2014)
# Experiments:
# [1] = in vivo; cited from earlier work
# rats = conditions: intracerebroventricular administration to rats; cited from earlier work
# [2] = tested on: obese, leptin deficient mice; conditions: systemic administration to obese; cited from earlier work
# human PrCP = human PrCP (Homo sapiens (Human), UniProt P42785); assay: biochemical
# human PrCP, sequence (P42785 46-496): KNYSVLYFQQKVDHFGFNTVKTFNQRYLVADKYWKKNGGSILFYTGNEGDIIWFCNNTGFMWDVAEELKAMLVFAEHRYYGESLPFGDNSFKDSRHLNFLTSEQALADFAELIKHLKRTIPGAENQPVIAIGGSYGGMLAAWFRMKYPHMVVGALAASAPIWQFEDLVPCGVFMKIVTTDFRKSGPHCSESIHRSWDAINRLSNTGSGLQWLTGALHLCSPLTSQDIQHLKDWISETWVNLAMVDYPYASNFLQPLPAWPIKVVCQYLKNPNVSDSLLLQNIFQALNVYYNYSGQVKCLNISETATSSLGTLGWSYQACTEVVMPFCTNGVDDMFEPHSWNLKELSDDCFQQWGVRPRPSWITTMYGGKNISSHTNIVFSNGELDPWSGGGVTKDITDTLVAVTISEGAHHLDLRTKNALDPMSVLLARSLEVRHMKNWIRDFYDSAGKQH
# Experimental: The assay was performed using a Hamilton Star liquid handling workstation. The assay employed the internally quenched fluorescent substrate (1S)-1-carboxy-5-[(2,4-dinitrophenyl)amino]pentyl N-[(7-methoxy-2-oxo-2H-chromen-4-yl)acetyl]-L-alanyl-L-prolinate prepared in house.
# The assay also contained 2% DMSO used to solubilize the substrate and inhibitor. Inhibitors were prepared in 100% DMSO and serial diluted (in 100% DMSO) to generate 11 point titration curves. Either 39 uL of human or mouse PrCP enzyme was added to the wells of the assay plate, followed by a 1 uL addition of the serially diluted inhibitor and mixed three times using a 30 uL mix volume. The reaction was initiated by the addition of 10 uL substrate and mixed three times using a 30 uL mix volume. […] IC50 values were calculated by comparing the resulting rates of reaction of the inhibited and control initial velocities.
# The enzymes were diluted in a mixture of 10 mM NaOAc (pH 5.5)/100 mM NaCl buffer containing 25 ug/mL bovine serum albumin that had been warmed to 37° C. in a water bath. The PrCP inhibitor test compounds were plated in 100% DMSO with a highest concentration of 500 uM. There were 12 dilution points for each compound tested including a blank with DMSO only. […]
Compound,"weight loss, of body weight for drug compared to placebo [1]",other results
CC(C)CC(N(C)C)C1(c2ccc(Cl)cc2)CCC1 (stereo not shown) [sibutramine],5%-10%,–
CC(C)(N)Cc1ccccc1 [phentermine],5%-10%,–
CCN[C@@H](C)Cc1cccc(C(F)(F)F)c1 [dexfenfluramine],5%-10%,–
t-butyl carbamate-prolyl prolinal [BPP],–,overnight food intake (rats): suppression of overnight food intake; overnight food intake [2]: suppression of overnight food intake
CCCCCCCCCCC[C@@H](C[C@@H]1OC(=O)[C@H]1CCCCCC)OC(=O)[C@H](CC(C)C)NC=O [orlistat],5%-10%,–
"O=C(NC(c1ccc(F)cc1)c1ccc(F)cc1)C1CCC(N2CCOCC2)CC1c1ccc(F)cc1 (single isomer, unassigned) [Example 4, N-[bis(4-fluorophenyl)methyl]-2-(4-fluorophenyl)-4-(morpholin-4-yl)cyclohexanecarboxamide]",–,IC50 (human PrCP): 2.1 nM
